Assay results reported in PMC12892976, “Alkylation-based optimization of antifungal FPPS inhibitors yields a potent, broad-spectrum lipophilic zoledronate derivative” (mBio, 2025).

Key:
Assay in all cases: checkerboard drug interaction (FICI, MICc)
Assay type in all cases: cell-based
[1] = system: Cryptococcus deuterogattii;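 note: simplified diagonal checkerboard screen pairing antifungal drugs with FPPS inhibitors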
Method: (§1) Drug interactions between antifungals and FPPS inhibitors were investigated using a simplified checkerboard diagonal screening method ([45]). […] FICIs were determined according to the Loewe additivity model ([17]).

Saccharomyces cerevisiae = system: Saccharomyces cerevisiae; design: INH MICc / INH MICc (ITR:INH) / INH MICc (KET:INH) / INH MICc (FLC:INH): unit not given beside the values; details: for INH FD (MIC-MICc fold decrease): fold decrease of inhibitor MIC;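 for all read-outs here: simplified diagonal checkerboard screen pairing antifungals with FPPS inhibitors, FICI calculated under the Loewe additivity model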
Aspergillus fumigatus = details: for INH FD (MIC-MICc fold decrease): fold decrease of inhibitor MIC
Method: as §1

[2] = S. cerevisiae, FLC:INH combination
[3] = S. cerevisiae, ITR:INH combination
[4] = S. cerevisiae, KET:INH combination
[5] = A. fumigatus, FLC:INH combination
[6] = A. fumigatus, ITR:INH combination
[7] = A. fumigatus, KET:INH combination

O=P(O)(O)C(O)(Cn1ccnc1)P(=O)(O)O [ZOL, zoledronate]
1: FLC MICc (Saccharomyces cerevisiae; S. cerevisiae, FLC:INH combination, MIC of FLC in combination with the inhibitor)
0.50: FICI (Saccharomyces cerevisiae; with ITR, Saccharomyces cerevisiae)
0.31: FICI ([1]; KET:ZOL) | FICI ([1]; with KET, Cryptococcus deuterogattii)
1.03: FICI (Aspergillus fumigatus; AMB:ZOL)
0.38: FICI ([1]; with ITR, Cryptococcus deuterogattii) | FICI (Saccharomyces cerevisiae; FLC:ZOL) | FICI (Saccharomyces cerevisiae; [2]) | FICI (Saccharomyces cerevisiae; with FLC, Saccharomyces cerevisiae)
512: bisphosphonate MICc (Aspergillus fumigatus; ZOL with 5FC)
128: bisphosphonate MICc ([1]; ZOL with 5FC) | bisphosphonate MICc ([1]; ZOL with AMB) | bisphosphonate MICc (Saccharomyces cerevisiae; ZOL with AMB) | INH FD (MIC-MICc fold decrease) (Aspergillus fumigatus; [6]) | bisphosphonate MICc (Aspergillus fumigatus; ZOL with CAS) | bisphosphonate MICc (Aspergillus fumigatus; ZOL with KET)
4: FLC FD (MIC-MICc fold decrease) (Saccharomyces cerevisiae; S. cerevisiae, FLC:INH combination, fold decrease of FLC MIC) | ITR FD (MIC-MICc fold decrease) (Saccharomyces cerevisiae; S. cerevisiae, ITR:INH combination, fold decrease of ITR MIC) | INH FD (MIC-MICc fold decrease) (Saccharomyces cerevisiae; [3]) | INH FD (MIC-MICc fold decrease) (Aspergillus fumigatus; [5]) | INH FD (MIC-MICc fold decrease) (Aspergillus fumigatus; [7])
2.5: FICI (Saccharomyces cerevisiae; AMB:ZOL)
8: bisphosphonate MICc ([1]; ZOL with FLC) | bisphosphonate MICc ([1]; ZOL with ITR) | INH FD (MIC-MICc fold decrease) (Saccharomyces cerevisiae; [2]) | KET FD (MIC-MICc fold decrease) (Saccharomyces cerevisiae; S. cerevisiae, KET:INH combination, fold decrease of KET MIC) | INH FD (MIC-MICc fold decrease) (Saccharomyces cerevisiae; [4])
16: bisphosphonate MICc ([1]; ZOL with KET) | bisphosphonate MICc (Aspergillus fumigatus; ZOL with AMB)
1.01: FICI (Saccharomyces cerevisiae; CAS:ZOL)
0.063: ITR MICc (Saccharomyces cerevisiae; S. cerevisiae, ITR:INH combination, MIC of ITR in combination with the inhibitor) | ITR MICc (Aspergillus fumigatus; A. fumigatus, ITR:INH combination, MIC of ITR in combination with the inhibitor)
0.5: FICI ([1]; VOR:ZOL) | FICI (Saccharomyces cerevisiae; ITR:ZOL) | FICI (Saccharomyces cerevisiae; [3])
32: bisphosphonate MICc ([1]; ZOL with VOR) | INH MICc (Saccharomyces cerevisiae; S. cerevisiae, FLC:INH combination, MIC of the inhibitor in combination with FLC) | INH MICc (Saccharomyces cerevisiae; S. cerevisiae, KET:INH combination, MIC of the inhibitor in combination with KET) | bisphosphonate MICc (Saccharomyces cerevisiae; ZOL with FLC) | bisphosphonate MICc (Saccharomyces cerevisiae; ZOL with KET)
64: bisphosphonate MICc ([1]; ZOL with CAS) | INH MICc (Saccharomyces cerevisiae; S. cerevisiae, ITR:INH combination, MIC of the inhibitor in combination with ITR) | bisphosphonate MICc (Saccharomyces cerevisiae; ZOL with 5FC) | bisphosphonate MICc (Saccharomyces cerevisiae; ZOL with ITR) | bisphosphonate MICc (Saccharomyces cerevisiae; ZOL with VOR) | FLC MICc (Aspergillus fumigatus; A. fumigatus, FLC:INH combination, MIC of FLC in combination with the inhibitor) | INH MICc (Aspergillus fumigatus; A. fumigatus, FLC:INH combination, MIC of the inhibitor in combination with FLC) | INH MICc (Aspergillus fumigatus; A. fumigatus, KET:INH combination, MIC of the inhibitor in combination with KET) | bisphosphonate MICc (Aspergillus fumigatus; ZOL with FLC) | bisphosphonate MICc (Aspergillus fumigatus; ZOL with VOR)
1.25: FICI (Saccharomyces cerevisiae; 5FC:ZOL)
2: bisphosphonate MICc (Saccharomyces cerevisiae; ZOL with CAS) | FICI (Aspergillus fumigatus; 5FC:ZOL) | FLC FD (MIC-MICc fold decrease) (Aspergillus fumigatus; A. fumigatus, FLC:INH combination, fold decrease of FLC MIC) | INH MICc (Aspergillus fumigatus; A. fumigatus, ITR:INH combination, MIC of the inhibitor in combination with ITR) | ITR FD (MIC-MICc fold decrease) (Aspergillus fumigatus; A. fumigatus, ITR:INH combination, fold decrease of ITR MIC) | KET MICc (Aspergillus fumigatus; A. fumigatus, KET:INH combination, MIC of KET in combination with the inhibitor) | KET FD (MIC-MICc fold decrease) (Aspergillus fumigatus; A. fumigatus, KET:INH combination, fold decrease of KET MIC) | bisphosphonate MICc (Aspergillus fumigatus; ZOL with ITR)
0.51: FICI (Aspergillus fumigatus; [6]) | FICI (Aspergillus fumigatus; ITR:ZOL)
0.25: FICI ([1]; with FLC, Cryptococcus deuterogattii) | FICI (Saccharomyces cerevisiae; KET:ZOL) | FICI (Saccharomyces cerevisiae; [4]) | KET MICc (Saccharomyces cerevisiae; S. cerevisiae, KET:INH combination, MIC of KET in combination with the inhibitor) | FICI (Saccharomyces cerevisiae; with KET, Saccharomyces cerevisiae)
0.75: FICI (Saccharomyces cerevisiae; VOR:ZOL) | FICI (Aspergillus fumigatus; [5]) | FICI (Aspergillus fumigatus; [7]) | FICI (Aspergillus fumigatus; CAS:ZOL) | FICI (Aspergillus fumigatus; FLC:ZOL) | FICI (Aspergillus fumigatus; KET:ZOL) | FICI (Aspergillus fumigatus; VOR:ZOL) | FICI (Aspergillus fumigatus; with FLC, Aspergillus fumigatus)
